Reference: patent publication US20240050428A1 (Cullgen (Shanghai), Inc., priority 2020, published 2024)
pIC50: −log10 of the molar value. Where two headings read alike, the source gives them in different places.

Key:
MV4;11 cells = experiment: Cell viability assay (CellTiter-Glo) in MV4;11 cells, alone or with gilteritinib; type: cell-based; details: Homo sapiens, MV4;11 cells, three days, CellTiter-Glo, read-out: MV4
MOLM-13 cells = experiment: Cell viability assay (CellTiter-Glo) in MOLM-13 cells, alone or with gilteritinib; type: cell-based; details: Homo sapiens, MOLM-13 cells, three days, CellTiter-Glo
[1] = MV4-11, 72 h, compound alone (without gilteritinib), 11 IC50
[2] = MV4-11, 72 h, with gilteritinib 10 nM, 11 IC50 gilteritinib
[3] = MOLM-13, 72 h, compound alone (without gilteritinib), read-out: MOLM-13 IC50
[4] = MOLM-13, 72 h, with gilteritinib 20 nM, read-out: MOLM-13 IC50 gilteritinib
[5] = 72 h, compound alone (without gilteritinib), 11 IC50
[6] = 72 h, with gilteritinib 10 nM, 11 IC50 gilteritinib
[7] = 72 h, compound alone (without gilteritinib), read-out: MOLM-13 IC50
[8] = 72 h, with gilteritinib 20 nM, read-out: MOLM-13 IC50 gilteritinib

SMILES	pIC50 (MV4;11 cells; [1])	pIC50 (MV4;11 cells; [2])	pIC50 (MOLM-13 cells; [3])	pIC50 (MOLM-13 cells; [4])	pIC50 (MV4;11 cells; [5])	pIC50 (MV4;11 cells; [6])	pIC50 (MOLM-13 cells; [7])	pIC50 (MOLM-13 cells; [8])
O=C1CCC(N2C(=O)c3ccc(NCCCN4CCC(N5CCN(c6ccccn6)CC5)C4)cc3C2=O)C(=O)N1 (stereo not drawn) [GS-344, 2-(2,6-Dioxopiperidin-3-yl)-5-((3-(3-(4-(pyridin-2-yl)piperazin-1-yl)pyrrolidin-1-yl)propyl)amino)isoindoline-1,3-dione]	< 6.00	< 6.00	< 6.00	< 6.00				
O=C(CN1CC(N2CCN(c3ccccn3)CC2)C1)NCc1ccc2c(c1)C(=O)N(C1CCC(=O)NC1=O)C2=O (stereo not drawn) [GS-345, N-((2-(2,6-Dioxopiperidin-3-yl)-1,3-dioxoisoindolin-5-yl)methyl)-2-(3-(4-(pyridin-2-yl)piperazin-1-yl)azetidin-1-yl)acetamide]	< 6.00	< 6.00	< 6.00	< 6.00				
O=C(CN1CCCC(n2cc(-c3cnc4ccccc4n3)cn2)C1)NCc1ccc2c(c1)C(=O)N(C1CCC(=O)NC1=O)C2=O (stereo not drawn) [GS-346, N-((2-(2,6-Dioxopiperidin-3-yl)-1,3-dioxoisoindolin-5-yl)methyl)-2-(3-(4-(quinoxalin-2-yl)-1H-pyrazol-1-yl)piperidin-1-yl)acetamide]	< 6.00	< 6.00	< 6.00	< 6.00				
O=C1CCC(N2C(=O)c3ccc(NCCCN4CCCC(n5cc(-c6cnc7ccccc7n6)cn5)C4)cc3C2=O)C(=O)N1 (stereo not drawn) [GS-347, 2-(2,6-Dioxopiperidin-3-yl)-5-((3-(3-(4-(quinoxalin-2-yl)-1H-pyrazol-1-yl)piperidin-1-yl)propyl)amino)isoindoline-1,3-dione]	< 6.00	< 6.00	< 6.00	7.00 to 8.00				
O=C1CCC(N2C(=O)c3ccc(NCCCCCC(=O)N4CCC(F)(c5ccccc5)CC4)cc3C2=O)C(=O)N1 (stereo not drawn) [GS-348, 2-(2,6-Dioxopiperidin-3-yl)-5-((6-(4-fluoro-4-phenylpiperidin-1-yl)-6-oxohexyl)amino)isoindoline-1,3-dione]	7.00 to 8.00	> 8.00	7.00 to 8.00	> 8.00				
O=C1CCC(N2C(=O)c3ccc(CNC(=O)NC4CCCC(n5cc(-c6cnc7ccccc7n6)cn5)C4)cc3C2=O)C(=O)N1 (stereo not drawn) [GS-349, 1-((2-(2,6-Dioxopiperidin-3-yl)-1,3-dioxoisoindolin-5-yl)methyl)-3-(3-(4-(quinoxalin-2-yl)-1H-pyrazol-1-yl)cyclohexyl)urea]	7.00 to 8.00	7.00 to 8.00	6.00 to 7.00	7.00 to 8.00				
O=C1CCC(N2C(=O)c3ccc(NCCCN4CCCC(N5CCN(c6ccccn6)CC5)C4)cc3C2=O)C(=O)N1 (stereo not drawn) [GS-350, 2-(2,6-Dioxopiperidin-3-yl)-5-((3-(3-(4-(pyridin-2-yl)piperazin-1-yl)piperidin-1-yl)propyl)amino)isoindoline-1,3-dione]	< 6.00	< 6.00	< 6.00	> 8.00				
O=C1CCC(N2C(=O)c3ccc(NCCNc4cccc(N5CCC(n6cc(-c7cnc8ccccc8n7)cn6)CC5)c4)cc3C2=O)C(=O)N1 (stereo not drawn) [GS-351, 2-(2,6-Dioxopiperidin-3-yl)-5-((2-((3-(4-(4-(quinoxalin-2-yl)-1H-pyrazol-1-yl)piperidin-1-yl)phenyl)amino)ethyl)amino)isoindoline-1,3-dione]					7.00 to 8.00	7.00 to 8.00	7.00 to 8.00	> 8.00
O=C1CCC(N2C(=O)c3ccc(CCCCCCCn4cc(-c5cnc6ccccc6n5)cn4)cc3C2=O)C(=O)N1 (stereo not drawn) [GS-352, 2-(2,6-Dioxopiperidin-3-yl)-5-(7-(4-(quinoxalin-2-yl)-1H-pyrazol-1-yl)heptyl)isoindoline-1,3-dione]	6.00 to 7.00	6.00 to 7.00	< 6.00	6.00 to 7.00				
O=C1CCC(N2C(=O)c3ccc(NCCNc4cccc(-n5cc(-c6cnc7ccccc7n6)cn5)c4)cc3C2=O)C(=O)N1 (stereo not drawn) [GS-353, 2-(2,6-Dioxopiperidin-3-yl)-5-((2-((3-(4-(quinoxalin-2-yl)-1H-pyrazol-1-yl)phenyl)amino)ethyl)amino)isoindoline-1,3-dione]					6.00 to 7.00	7.00 to 8.00	< 6.00	7.00 to 8.00
O=C1CCC(N2C(=O)c3ccc(OCCCCCCn4cc(-c5cnc6ccccc6n5)cn4)cc3C2=O)C(=O)N1 (stereo not drawn) [GS-354, 2-(2,6-Dioxopiperidin-3-yl)-5-((6-(4-(quinoxalin-2-yl)-1H-pyrazol-1-yl)hexyl)oxy)isoindoline-1,3-dione]	< 6.00	< 6.00	< 6.00	< 6.00				
O=C1CCC(N2C(=O)c3ccc(NCCCn4cc(-c5cnc6ccccc6n5)cn4)cc3C2=O)C(=O)N1 (stereo not drawn) [GS-355, 2-(2,6-Dioxopiperidin-3-yl)-5-((3-(4-(quinoxalin-2-yl)-1H-pyrazol-1-yl)propyl)amino)isoindoline-1,3-dione]	< 6.00	7.00 to 8.00	< 6.00	6.00 to 7.00				
O=C1CCC(N2C(=O)c3ccc(NCCCCCn4cc(-c5cnc6ccccc6n5)cn4)cc3C2=O)C(=O)N1 (stereo not drawn) [GS-356, 2-(2,6-Dioxopiperidin-3-yl)-5-((5-(4-(quinoxalin-2-yl)-1H-pyrazol-1-yl)pentyl)amino)isoindoline-1,3-dione]	6.00 to 7.00	6.00 to 7.00	< 6.00	6.00 to 7.00				
O=C1CCC(N2C(=O)c3ccc(NCCNc4cccc(-n5cc(-c6cnc7cccc(Br)c7n6)cn5)c4)cc3C2=O)C(=O)N1 (stereo not drawn) [GS-357, 5-((2-((3-(4-(8-Bromoquinoxalin-2-yl)-1H-pyrazol-1-yl)phenyl)amino)ethyl)amino)-2-(2,6-dioxopiperidin-3-yl)isoindoline-1,3-dione]					7.00 to 8.00	7.00 to 8.00	7.00 to 8.00	7.00 to 8.00
O=C1CCC(N2C(=O)c3ccc(C4CCN(CCCn5cc(-c6cnc7ccccc7n6)cn5)CC4)cc3C2=O)C(=O)N1 (stereo not drawn) [GS-358, 2-(2,6-Dioxopiperidin-3-yl)-5-(1-(3-(4-(quinoxalin-2-yl)-1H-pyrazol-1-yl)propyl)piperidin-4-yl)isoindoline-1,3-dione]					< 6.00	< 6.00	< 6.00	< 6.00
O=C(CN1CCCC(N2CCN(c3ccccn3)CC2)C1)NCc1ccc2c(c1)C(=O)N(C1CCC(=O)NC1=O)C2=O (stereo not drawn) [GS-359, N-((2-(2,6-Dioxopiperidin-3-yl)-1,3-dioxoisoindolin-5-yl)methyl)-2-(3-(4-(pyridin-2-yl)piperazin-1-yl)piperidin-1-yl)acetamide]	< 6.00	< 6.00	< 6.00	< 6.00				
O=C1CCC(N2C(=O)c3ccc(NCCCCn4cc(-c5cnc6ccccc6n5)cn4)cc3C2=O)C(=O)N1 (stereo not drawn) [GS-360, 2-(2,6-Dioxopiperidin-3-yl)-5-((4-(4-(quinoxalin-2-yl)-1H-pyrazol-1-yl)butyl)amino)isoindoline-1,3-dione]	6.00 to 7.00	6.00 to 7.00	< 6.00	7.00 to 8.00				
O=C1CCC(N2Cc3cc(NCCCCCCn4cc(-c5cnc6ccccc6n5)cn4)ccc3C2=O)C(=O)N1 (stereo not drawn) [GS-361, 3-(1-Oxo-5-((6-(4-(quinoxalin-2-yl)-1H-pyrazol-1-yl)hexyl)amino)isoindolin-2-yl)piperidine-2,6-dione]	6.00 to 7.00	7.00 to 8.00	< 6.00	7.00 to 8.00				
